Assay results as given in publication PMC4036672 (Analytical biochemistry, 2014).
Where a SMILES comes first, the peptide text is derived from it.

Target: T1, Neuropilin-2 (Nrp2) (Homo sapiens, UniProt O60462)
T1 sequence (O60462 276-595): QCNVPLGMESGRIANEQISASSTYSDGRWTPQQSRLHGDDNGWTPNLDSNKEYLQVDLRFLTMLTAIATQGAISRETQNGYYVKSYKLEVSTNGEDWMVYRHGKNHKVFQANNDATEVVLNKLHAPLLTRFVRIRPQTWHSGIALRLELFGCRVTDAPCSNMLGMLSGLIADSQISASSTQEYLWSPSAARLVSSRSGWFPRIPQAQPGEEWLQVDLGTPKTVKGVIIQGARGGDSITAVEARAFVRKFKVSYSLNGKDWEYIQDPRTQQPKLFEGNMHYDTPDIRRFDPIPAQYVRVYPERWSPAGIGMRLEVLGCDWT
Test: competition plate assay: AP-VEGF-C binding to immobilised purified Nrp2-b1b2

| Compound | IC50 |
| --- | --- |
| COc1cc(C(=O)NS(=O)(=O)c2ccccc2C)ccc1Cc1cn(C)c2ccc(NC(=O)OC3CCCC3)cc12 [Zafirlukast] | 66 µM |
| Oc1cc2c(cc1O)[C@H]1c3ccccc3CN[C@@H]1CC2 (racemic) [Dihydrexidine] | 113 µM |
| CC(C)C[C@H](NC(=O)[C@H](Cc1c[nH]c2ccccc12)NC(=O)[C@@H](NC(=O)[C@H](C)N)[C@@H](C)O)C(=O)N1CCC[C@H]1C(=O)N1CCC[C@H]1C(=O)N[C@@H](CCCNC(=N)N)C(=O)O [ATWLPPR] (H-ATWLPPR-OH) | 43 µM |
